What all share (experiment): NCI anticancer screen, dose series, 48 h
For assay [1], the system named is OVCAR-4 ovarian.
For assay [2], the system named is K-562 leukemia.
The subject of assay [3] is KM12 colon.
The test system of assay [4] is HT29 colon.
For assay [5], the system named is OVCAR-8 ovarian.
In assay [6] the test system is SNB-75 CNS.
Assay [7] deals with NCI-H460 lung.
Assay [8] deals with RXF 393 renal.
Assay [9] has as its system PC-3 prostate.
Assay [10] has as its system U251 CNS.

SMILES strings stand for the structures. Where “and” joins values, the source holds several entries; their conditions need not be identical. Identical values can stand only once.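 Method: 48-hour compound exposure of cells in 96-well plates, five concentrations, linear interpolation of endpoints. TGI is the concentration that stops growth completely.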

Turning to `CCn1c2ccccc2c2cc(NC(=O)c3c(C)[nH]c(=O)[nH]c3=S)ccc21`, the TGI in [1] was above 100 µM; in assay [2] it was above 100 µM; in assay [3], 64.5 µM; in assay [4] it was above 100 µM; in [5], above 100 µM; in [6], above 100 µM. The TGI in [7], in [8], in [9] and in assay [10] was above 100 µM throughout.
With `c1csc(-c2csc(-c3cccs3)c2)c1`, the TGI in assay [1], in [3], in assay [4], in assay [5], in assay [6] and in assay [7] was above 100 µM each time. In addition, the TGI in assay [8] is 74 µM; in assay [9], 82.7 µM; in assay [10] it was above 100 µM.
As to `O=C(O)c1cc2c(cc1CC(Cc1ccccc1)C(=O)O)CCC2` (centres undefined), the TGI in assay [1], in assay [2], in assay [3], in assay [4], in assay [5] and in assay [6] was above 100 µM each time. Besides, the TGI in assay [7], in assay [8], in assay [9] and in [10] was above 100 µM in each case.
For `CCCNC(=O)Cn1c(-c2ccccc2)cc2ccccc21`, the TGI in assay [1], in assay [2], in assay [3], in [4], in assay [5] and in assay [6] was above 100 µM in each case. Moreover, the TGI was above 100 µM in assay [7], 57.3 µM in assay [8], above 100 µM in [9] and above 100 µM in [10].
`O=c1oc2ccccc2cc1-c1nc2ccccc2s1`: the TGI is 29 µM in [1]; above 54.3 µM in [3]; 25.8 µM in [4]; 20.4 µM in [5]; 17.4 µM in [6]; 53 µM in [7]. In addition, the TGI was 24.2 µM in assay [8], above 84.3 µM in assay [9] and 21.4 µM in assay [10].
Consider `CC(C)=CCC/C(C)=C/CCC1(C)C2COC(=O)C21` (centres undefined), for which the TGI in assay [1] was above 100 µM; in assay [2] it was 49.2 µM; in assay [3] it was above 100 µM; in [4] it was above 100 µM; in assay [7], above 100 µM; in assay [8], above 100 µM. Also, the TGI in [9] and in assay [10] was above 100 µM each time.
For `CCCCC[C@@H]1OC(=O)[C@@]2(CC3c4ccccc4C2c2ccccc23)[C@H]1C(=O)OC`, the TGI in assay [1], in assay [2], in assay [3], in assay [4], in assay [5] and in assay [7] was above 100 µM each time. The TGI in assay [8], in assay [9] and in assay [10] was above 100 µM in each case.
`Cc1cc(=O)[nH]c(S(=O)(=O)NC(=S)Nc2ccc(Br)cc2)n1`: the TGI in [1], in assay [4], in [5], in assay [6], in assay [7] and in assay [8] was above 100 µM in each case. The TGI in assay [9] and in [10] was above 100 µM throughout.
For the compound `C=C(Cl)C(=C)CCC(Cl)C(C)(C)Cl` (centres undefined), the TGI in assay [1], in assay [2], in assay [3], in [4], in assay [6] and in [7] was above 100 µM each time. In addition, the TGI in [8], in [9] and in assay [10] was above 100 µM in each case.
As for `CN1C(C(=O)Nc2ccccn2)=C(O)c2ccccc2S1(=O)=O`, the TGI in [1], in [3], in [4], in assay [5], in assay [6] and in assay [8] was above 100 µM throughout. The TGI in [9] and in [10] was above 100 µM in each case.
Regarding `O=[N+]([O-])c1ccc(-c2nc3ccccc3o2)cc1`, the TGI in assay [1], in [2], in [3], in assay [5], in [6] and in assay [7] was above 100 µM each time. The TGI in [8], in [9] and in assay [10] was above 100 µM throughout.
For `CC(C)(CN1CCCCC1)C(=O)CC(SCCS(=O)(=O)O)c1ccc(Cl)c(Cl)c1` (centres undefined), the TGI in assay [1] was found to be 9.38 µM; in [3], 23 µM; in [4], 10.9 µM; in assay [5], 8.45 µM; in [7], 11.9 µM; in assay [8], 11.2 µM. In addition, the TGI in assay [9] stood at 17 µM; in assay [10], 19.3 µM.
As for `O=C(n1c(=O)n(-c2ccc([N+](=O)[O-])cc2)c(=O)n1C(=O)C(Cl)(Cl)Cl)C(Cl)(Cl)Cl`, the TGI in [1], in [3], in [4], in assay [5], in assay [6] and in [7] was above 100 µM each time. Besides, the TGI in [8], in assay [9] and in [10] was above 100 µM throughout.
For the compound `CCCCCCCCCCCOCCC1C(C(C)OCCN2CCCC2)OC2OC(C)(C)OC21` (centres undefined), the TGI in [1] came to 22.3 µM; in assay [3], 1.78 µM; in [4] it was 3.5 µM; in assay [5], 11.3 µM; in assay [6], 7.07 µM; in [7], 5.05 µM. Moreover, the TGI was determined as 7.3 µM in [8], 6.05 µM in assay [9] and 5.72 µM in assay [10].
As for `Nc1ncnc2c(C3OC(CO)C(O)C3O)c[nH]c12` (centres undefined), the TGI in assay [1] was 0.705 µM and 0.741 µM; in [2] it was 0.116 µM and 0.0193 µM; in assay [3] it was 0.396 µM and 0.465 µM; in assay [4] it was 0.343 µM and 1.21 µM; in assay [5] it was 0.0845 µM and 0.771 µM; in [6] it was 0.0984 µM and 0.459 µM. Further, the TGI in assay [7] was 0.048 µM and 0.0128 µM; in [8], 0.126 µM and 0.0746 µM; in assay [9], 0.128 µM and 0.324 µM.

The values above are taken from PubChem BioAssay (NCI).
